Test results as given in ChEMBL document CHEMBL1201862, “PubChem BioAssay data set” (2004).
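Following 48 hours of exposure in 96-well plates, responses at five concentrations were used to interpolate endpoints linearly. GI50 marks 50% less growth.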 Activity calls are given as the source filed them. Rule as the data show it: active = GI50 up to about 1.1 µM and inactive = higher.

Key:
Experiment in all cases: inhibition of tumour cell growth, NCI panel, 48 h
[1] = tested on: UACC-62
[2] = tested on: DU-145
[3] = tested on: HT-29
[4] = tested on: RPMI-8226
[5] = tested on: PC-3
[6] = tested on: BT-549
[7] = tested on: HCT-116
[8] = tested on: SK-MEL-28
[9] = tested on: HOP-62
[10] = tested on: TK-10
[11] = tested on: NCI/ADR-RES
[12] = tested on: U-251
[13] = tested on: NCI-H522
[14] = tested on: NCI-H23
[15] = tested on: SR
[16] = tested on: SNB-19
[17] = tested on: SF-539
[18] = tested on: OVCAR-4
[19] = tested on: NCI-H460

Measured: GI50

Cc1ccc2c(/C=C/c3ccc(N(C)C)cc3)ccc(C(C)C)cc1-2
inactive: [1] > 100 µM | [2] > 100 µM | [3] 49.1 µM | [4] > 100 µM | [5] > 100 µM | [6] > 100 µM | [7] > 100 µM | [8] > 100 µM | [9] > 100 µM | [10] > 100 µM | [11] > 100 µM | [12] > 100 µM | [13] 99.3 µM | [14] > 100 µM | [15] 27.9 µM

OCC1OC(n2cnc3cccnc32)CC1O (stereo unspecified)
inactive: [1] > 100 µM | [2] > 100 µM | [3] > 100 µM | [16] > 100 µM | [5] > 100 µM | [17] > 100 µM | [6] > 100 µM | [7] > 100 µM | [8] > 100 µM | [9] > 100 µM | [18] > 100 µM | [10] > 100 µM | [19] > 100 µM | [11] > 100 µM | [12] > 100 µM | [13] > 100 µM | [14] > 100 µM | [15] > 100 µM

CC1=NN(c2ccccc2Cl)C2(C1)SCC(=O)N2c1nc2ccccc2s1 (stereo unspecified)
inactive: [1] > 100 µM | [2] > 100 µM | [3] > 100 µM | [4] > 100 µM | [16] > 100 µM | [5] > 100 µM | [17] > 100 µM | [6] > 100 µM | [7] > 100 µM | [8] > 100 µM | [9] > 100 µM | [18] > 100 µM | [10] > 100 µM | [19] > 100 µM | [11] > 100 µM | [12] > 100 µM | [13] > 100 µM | [14] > 100 µM

c1ccc(C(Oc2noc3ccccc23)c2ccccc2)cc1
inactive: [1] 31.8 µM | [2] 34 µM | [3] 36.7 µM | [16] 46 µM | [5] 34.4 µM | [6] 32.1 µM | [7] 25.9 µM | [8] 65.5 µM | [9] 88.5 µM | [18] 22.2 µM | [10] 47.6 µM | [19] 29.2 µM | [11] 30.8 µM | [12] 31.7 µM | [13] 26.1 µM | [14] 41.7 µM | [15] 13.2 µM

N#Cc1c(-c2ccccc2)[nH]c2ccccc2c1=O
inactive: [1] 73.8 µM | [2] > 100 µM | [3] > 100 µM | [16] 22.8 µM | [5] > 100 µM | [17] > 100 µM | [6] 25.8 µM | [7] 87.5 µM | [8] > 100 µM | [9] 27.7 µM | [18] > 100 µM | [10] 32.8 µM | [19] > 100 µM | [11] > 100 µM | [15] > 100 µM

O=C(c1ccccc1)C(C(=O)c1ccccc1)c1nc2ccccc2sc1=O
inactive: [1] 7.11 µM | [2] > 25 µM | [3] 17 µM | [4] 7.18 µM | [16] 18.5 µM | [5] 12.9 µM | [17] 17.1 µM | [6] 5.92 µM | [7] 12 µM | [8] > 25 µM | [9] 9.59 µM | [18] 9.71 µM | [10] 16.9 µM | [19] 11.4 µM | [11] 10.5 µM | [12] 5.73 µM | [13] 9.57 µM | [14] 16.6 µM
